# Where two headings read alike, the source gives them in different places.
# What was measured:
# γ-secretase = biological target: T1, γ-secretase (Homo sapiens, UniProt P49768); assay: in vitro assay of γ-secretase activity (HEK293 membrane fraction, recombinant APP substrate, Abeta ELISA); format: biochemical; settings: for Comments: potency (and THESA solubility) of the present example compared with the corresponding example from WO 2005/023772
# T1 construct: HEK293 membrane fraction as a source of γ-secretase
# Description: Description of γ-secretase Assay
# The activity of test compounds can be evaluated in assays which measure the proteolytic cleavage of suitable substrates by γ-secretase activity. These can be cellular assays where e.g., a substrate of the γ-secretase is fused in its cytoplasmic domain to a transcription factor. Cells are transfected with this fusion gene and a reporter gene, e.g., firefly luciferase, which expression is enhanced by the transcription factor. Cleavage of the fused substrate by γ-secretase will lead to expression of the reporter gene which can be monitored in appropriate assays. The γ-secretase activity can also be determined in cell-free in vitro assays where e.g., a cell lysate containing the γ-secretase complex is incubated with a suitable APP-derived substrate which is cleaved to the Abeta peptides. The amount of produced peptides can be determined with specific ELISA assays. Cell lines of neuronal origin secrete Abeta peptides which can be measured with the specific ELISA assay. Treatment with compounds which inhibit γ-secretase leads to a reduction of secreted Abeta thus providing a measure of inhibition.
# The in vitro assay of γ-secretase activity uses a HEK293 membrane fraction as a source of γ-secretase and a recombinant APP substrate. Latter consist of the C-terminal 100 amino acids of human APP fused to a 6×Histidin tail for purification which is expressed in E.coli in a regulatable expression vector, e.g. pEt15. This recombinant protein corresponds to the truncated APP fragment which results after […] of the extracellular domain and which constitutes the γ-secretase substrate. The assay principle is described in Li Y M et al, PNAS 97(11), 6138-6143 (2000). Hek293 cells are mechanically disrupted and the microsomal fraction is isolated by differential centrifugation. The membranes are solubilized in detergent (0.25% CHAPSO) and incubated with the APP substrate. The Abeta peptides which are produced by γ-secretase cleavage of the substrate are detected by specific ELISA assays as described (Brockhaus M et al, Neuroreport 9(7), 1481-1486 (1998).
# [1] = THESA assay for determination of the thermodynamic solubility; format: physicochemical; settings: 22.5 °C, aqueous buffer, thermodynamic from solid, second figure of the cell
# Protocol: In addition, the compounds of the present invention have been tested in a THESA assay for determination of the thermodynamic solubility.
# Approximately 2 mg of each compound was added in excess to a 50 mM phosphate buffer, at room temperature (22.5±1° C.). Each sample was placed in a microanalysis tube, which was sonicated for 1 h and agitated for 2 h. All suspensions were left overnight. At the next day all pHs were measured with a pH-meter and the samples filtered with a micronic filterplate (MSGVN2250) to separate the solid material from the solution. Then, all solutions were analyzed by HPLC. The calibration line was established by different concentrations of the compound in DMSO. From this regression equation the solubility of the compound was determined.
# [2] = 50 mM phosphate buffer, room temperature (22.5±1° C.), read-out: THESA (IC50/THESA, Example No. present appl.)
# [3] = comparison compounds from WO 2005/023772, 50 mM phosphate buffer, room temperature, read-out: THESA (IC50/THESA, Corresponding Example from WO 2005/023772)
Structure (SMILES),Comments (γ-secretase),"solubility thermodynamic [1, 2]","solubility thermodynamic [1, 3]",also measured
CCCC(O)(C(=O)NCCC(F)(F)F)C(=O)N[C@@H]1C(=O)Nc2ccccc2-c2ccccc21 (mixture of isomers) [Example 6a],Higher potency,–,–,–
CC(O)(C(=O)NCC(F)(F)C(F)(F)F)C(=O)N[C@@H]1C(=O)N(CC(F)(F)F)c2ccccc2-c2ccccc21 (mixture of isomers) [Example 12a],Higher potency,–,–,–
"CCCC(O)(C(N)=O)C(=O)N(CCC(F)(F)F)[C@@H]1C(=O)Nc2ccccc2-c2ccccc21 (single isomer, unassigned) [Example 6g, (R or S)-2-Hydroxy-N-((S)-6-oxo-6,7-dihydro-5H-dibenzo[b,d]azepin-7-yl)-2-propyl-N-(3,3,3-trifluoro-propyl)-malonamide]",Higher potency,–,–,–
"C[C@@](O)(C(=O)NCC(F)(F)C(F)(F)F)C(=O)N[C@@H]1C(=O)Nc2ccccc2-c2ccccc21 [Example 1b, (R)-2-Hydroxy-2-methyl-N-((S)-6-oxo-6,7-dihydro-5H-dibenzo[b,d]azepin-7-yl)-N′-(2,2,3,3,3-pentafluoro-propyl)-malonamide]",–,19 µg/mL,–,–
"C[C@](O)(C(=O)NCC(F)(F)C(F)(F)F)C(=O)N[C@@H]1C(=O)Nc2ccccc2-c2ccccc21 [Example 1c, (S)-2-Hydroxy-2-methyl-N-((S)-6-oxo-6,7-dihydro-5H-dibenzo[b,d]azepin-7-yl)-N′-(2,2,3,3,3-pentafluoro-propyl)-malonamide]",–,14 µg/mL,–,–
"C[C@](O)(C(=O)NCCC(F)(F)F)C(=O)N[C@@H]1C(=O)Nc2ccccc2-c2ccccc21 [Example 2c, (S)-2-Hydroxy-2-methyl-N-((S)-6-oxo-6,7-dihydro-5H-dibenzo[b,d]azepin-7-yl)-N′-(3,3,3-trifluoro-propyl)-malonamide]","Higher potency, higher solubility",127 µg/mL,–,–
"C[C@](O)(C(=O)NCC(F)(F)F)C(=O)N[C@@H]1C(=O)Nc2ccccc2-c2ccccc21 [Example 3b, (S)-2-Hydroxy-2-methyl-N-((S)-6-oxo-6,7-dihydro-5H-dibenzo[b,d]azepin-7-yl)-N′-(2,2,2-trifluoro-ethyl)-malonamide]","Higher potency, higher solubility",26 µg/mL,–,–
"C[C@](O)(C(=O)NCC(F)(F)F)C(=O)N[C@@H]1C(=O)N(CC(F)(F)F)c2ccccc2-c2ccccc21 [Example 13b, (S)-2-Hydroxy-2-methyl-N-[(S)-6-oxo-5-(2,2,2-trifluoro-ethyl)-6,7-dihydro-5H-dibenzo[b,d]azepin-7-yl]-N′-(2,2,2-trifluoro-ethyl)-malonamide]",Higher potency,14 µg/mL,–,–
C[C@](F)(C(=O)NCC(F)(F)C(F)(F)F)C(=O)N[C@H]1C(=O)Nc2ccccc2-c2ccccc21 [reference compound],–,–,< 1 µg/mL,–
C[C@@](F)(C(=O)NCC(F)(F)C(F)(F)F)C(=O)N[C@H]1C(=O)Nc2ccccc2-c2ccccc21 [reference compound],–,–,< 1 µg/mL,–
CC(C)(C(=O)NCCC(F)(F)F)C(=O)N[C@H]1C(=O)Nc2ccccc2-c2ccccc21 [reference compound],–,–,< 1 µg/mL,–
CC(C)(C(=O)NCC(F)(F)F)C(=O)N[C@H]1C(=O)Nc2ccccc2-c2ccccc21 [reference compound],–,–,16 µg/mL,–
CCCC(C)(C(=O)NCCC(F)(F)F)C(=O)N[C@H]1C(=O)Nc2ccccc2-c2ccccc21 (stereo partly shown) [reference compound],–,–,–,"IC50 (IC50/THESA, Corresponding Example from WO 2005/023772) (γ-secretase; first figure of the cell, comparison compounds from WO 2005/023772): nearly inactive/—"
